Measurements published in PMC7508628, “Targeting the Respiratory Syncytial Virus N^0-P Complex with Constrained α-Helical Peptides in Cells and Mice” (Antimicrobial Agents and Chemotherapy, 2020).
Where a SMILES comes first, the peptide text is derived from it. Bridges are numbered along the chain shown (N, C = ends). [ ]: non-standard residue; d: D form. R8 = C=CCCCCCC[C@@](C)(N)C(=O)O; R5 = C=CCCC[C@@](C)(N)C(=O)O; S5 = C=CCCC[C@](C)(N)C(=O)O

Key:
circular dichroism = settings: 10 mM phosphate; pH 7.5; 25 °C; 50 uM
rHRSV-mCherry = settings: read-out: EC50 (half-maximal response inhibitory concentration), inhibition of RSV infection; HEp-2 cells, MOI 0.2, peptides added after 2 h infection, mCherry fluorescence at 48 h postinfection; duplicates
[1] = Circular dichroism spectroscopy, α-helical content; assay type: physicochemical; settings: CD, 10 mM phosphate buffer pH 7.5, 50 μM peptide, 25°C, calculated from ellipticity at 222 nm; average of three measurements
Method: The α-helical stabilization appeared to be higher for the i, i + 7 staples overall.
The circular dichroism spectra were acquired on a Chirascan spectropolarimeter. The samples were prepared in 10 mM phosphate buffer, pH 7.5, at a peptide concentration of 50 μM. Data were recorded at 25°C by step scan from 180 nm to 260 nm in a 0.5-mm-pathlength quartz cell using 0.2-nm-wavelength increments, a 1-nm bandwidth, and a response time of 1 s. Each spectrum was an average of three measurements and was subtracted from the buffer baseline. The data were converted to per residue molar ellipticity units (θ; in degrees · square centimeters · decimoles^−1 · number of residues^−1) and smoothed using Igor Pro software. Percent helicity was calculated as follows: (100 × CD222)/(C × N × {40,000 × [1 − (2.5/N)]}), where CD222 is the molar ellipticity (θ) at 222 nm (in millidegrees), N is the number of amino acids in the peptide, and C is the peptide molar concentration (in moles per liter).

Row | SMILES | helicity (circular dichroism) [%] | EC50 (rHRSV-mCherry) [µM] | % helicity [1] [%]
1 | CC[C@H](C)[C@@H]1NC(=O)[C@H](CO)NC(=O)[C@H](CCC(=O)O)NC(=O)[C@H](CC(C)C)NC(=O)[C@H](Cc2ccccc2)NC(=O)[C@](C)(NC(=O)[C@@H](NC(=O)[C@H](C)NC(=O)[C@H](CCCCN)NC(=O)[C@H](CC(N)=O)NC(=O)[C@H](CC(N)=O)NC(=O)[C@H](C)NC(=O)[C@H](CC(=O)O)NC(=O)[C@H](CCC(=O)O)NC(C)=O)[C@@H](C)O)CCCCCCC=CCCC[C@@](C)(C(=O)N[C@@H](CCCCN)C(=O)N[C@@H](Cc2ccccc2)C(=O)N[C@@H](C)C(=O)N[C@@H](CO)C(N)=O)NC(=O)[C@H](CCCCN)NC1=O (Ac-EDANNKAT[R8]FLESIK[S5]KFAS-NH2; staple 9-16) | 96 | – | –
2 | CC[C@H](C)[C@H](NC(=O)[C@H](CO)NC(=O)[C@]1(C)CCCC=CCCC[C@](C)(NC(=O)[C@H](C)NC(=O)[C@H](CCCCN)NC(=O)[C@H](CC(N)=O)NC(=O)[C@H](CC(N)=O)NC(=O)[C@H](C)NC(=O)[C@H](CC(=O)O)NC(=O)[C@H](CCC(=O)O)NC(C)=O)C(=O)N[C@@H](CCCCN)C(=O)N[C@@H](Cc2ccccc2)C(=O)N[C@@H](CC(C)C)C(=O)N1)C(=O)N[C@@H](CCCCN)C(=O)NCC(=O)N[C@@H](CCCCN)C(=O)N[C@@H](Cc1ccccc1)C(=O)N[C@@H](C)C(=O)N[C@@H](CO)C(N)=O (Ac-EDANNKA[S5]KFL[S5]SIKGKFAS-NH2; staple 8-12) | 31 | – | –
3 | CC[C@H](C)[C@H](NC(=O)[C@]1(C)CCCC=CCCCCCC[C@@](C)(NC(=O)[C@H](CC(N)=O)NC(=O)[C@H](CC(N)=O)NC(=O)[C@H](C)NC(=O)[C@H](CC(=O)O)NC(=O)[C@H](CCC(=O)O)NC(C)=O)C(=O)N[C@@H](C)C(=O)N[C@@H]([C@@H](C)O)C(=O)N[C@@H](CCCCN)C(=O)N[C@@H](Cc2ccccc2)C(=O)N[C@@H](CC(C)C)C(=O)N[C@@H](CCC(=O)O)C(=O)N1)C(=O)N[C@@H](CCCCN)C(=O)NCC(=O)N[C@@H](CCCCN)C(=O)N[C@@H](Cc1ccccc1)C(=O)N[C@@H](C)C(=O)N[C@@H](CO)C(N)=O (Ac-EDANN[R8]ATKFLE[S5]IKGKFAS-NH2; staple 6-13) | 36.5 | – | –
4 | CC[C@H](C)[C@H](NC(=O)[C@H](CO)NC(=O)[C@]1(C)CCCC=CCCCCCC[C@@](C)(NC(=O)[C@H](CC(N)=O)NC(=O)[C@H](C)NC(=O)[C@H](CC(=O)O)NC(=O)[C@H](CCC(=O)O)NC(C)=O)C(=O)N[C@@H](CCCCN)C(=O)N[C@@H](C)C(=O)N[C@@H]([C@@H](C)O)C(=O)N[C@@H](CCCCN)C(=O)N[C@@H](Cc2ccccc2)C(=O)N[C@@H](CC(C)C)C(=O)N1)C(=O)N[C@@H](CCCCN)C(=O)NCC(=O)N[C@@H](CCCCN)C(=O)N[C@@H](Cc1ccccc1)C(=O)N[C@@H](C)C(=O)N[C@@H](CO)C(N)=O (Ac-EDAN[R8]KATKFL[S5]SIKGKFAS-NH2; staple 5-12) | 64.6 | – | –
5 | CC[C@H](C)[C@H](NC(=O)[C@H](CO)NC(=O)[C@]1(C)CCCC=CCCC[C@@](C)(NC(=O)[C@@H](NC(=O)[C@H](C)NC(=O)[C@H](CCCCN)NC(=O)[C@H](CC(N)=O)NC(=O)[C@H](CC(N)=O)NC(=O)[C@H](C)NC(=O)[C@H](CC(=O)O)NC(=O)[C@H](CCC(=O)O)NC(=O)CNC(=O)[C@H](Cc2c[nH]cn2)NC(=O)[C@H](Cc2ccccc2)NC(=O)[C@H](CCC(=O)O)NC(C)=O)[C@@H](C)O)C(=O)N[C@@H](Cc2ccccc2)C(=O)N[C@@H](CC(C)C)C(=O)N1)C(=O)N[C@@H](CCCCN)C(=O)N[C@]1(C)CCCC=CCCC[C@@](C)(C(=O)N[C@@H](CO)C(N)=O)NC(=O)[C@H](Cc2ccccc2)NC(=O)[C@H](CCCCN)NC1=O [1c1f] (Ac-EFHGEDANNKAT[R5]FL[S5]SIK[R5]KF[S5]S-NH2; staple 13-16, 20-23) | – | > 100 | 39.2
6 | CC[C@H](C)[C@H](NC(=O)[C@H](CO)NC(=O)[C@H](CCC(=O)O)NC(=O)[C@H](CC(C)C)NC(=O)[C@H](Cc1ccccc1)NC(=O)[C@]1(C)CCCC=CCCC[C@](C)(NC(=O)[C@H](CC(N)=O)NC(=O)[C@H](C)NC(=O)[C@H](CC(=O)O)NC(=O)[C@H](CCC(=O)O)NC(C)=O)C(=O)N[C@@H](CCCCN)C(=O)N[C@@H](C)C(=O)N[C@@H]([C@@H](C)O)C(=O)N1)C(=O)N[C@@H](CCCCN)C(=O)NCC(=O)N[C@@H](CCCCN)C(=O)N[C@@H](Cc1ccccc1)C(=O)N[C@@H](C)C(=O)N[C@@H](CO)C(N)=O [2a] (Ac-EDAN[S5]KAT[S5]FLESIKGKFAS-NH2; staple 5-9) | 17.9 | – | 17.9
7 | CC[C@H](C)[C@H](NC(=O)[C@H](CO)NC(=O)[C@]1(C)CCCC=CCCC[C@](C)(NC(=O)[C@H](C)NC(=O)[C@H](CCCCN)NC(=O)[C@H](CC(N)=O)NC(=O)[C@H](CC(N)=O)NC(=O)[C@H](C)NC(=O)[C@H](CC(=O)O)NC(=O)[C@H](CCC(=O)O)NC(=O)CNC(=O)[C@H](Cc2c[nH]cn2)NC(=O)[C@H](Cc2ccccc2)NC(=O)[C@H](CCC(=O)O)NC(C)=O)C(=O)N[C@@H](CCCCN)C(=O)N[C@@H](Cc2ccccc2)C(=O)N[C@@H](CC(C)C)C(=O)N1)C(=O)N[C@@H](CCCCN)C(=O)N[C@]1(C)CCCC=CCCC[C@@](C)(C(=O)N[C@@H](CO)C(N)=O)NC(=O)[C@H](Cc2ccccc2)NC(=O)[C@H](CCCCN)NC1=O [2b1f] (Ac-EFHGEDANNKA[S5]KFL[S5]SIK[R5]KF[S5]S-NH2; staple 12-16, 20-23) | – | 41 ± 0.5 | 37.6
8 | CC[C@H](C)[C@H](NC(=O)[C@]1(C)CCCC=CCCC[C@](C)(NC(=O)[C@@H](NC(=O)[C@H](C)NC(=O)[C@H](CCCCN)NC(=O)[C@H](CC(N)=O)NC(=O)[C@H](CC(N)=O)NC(=O)[C@H](C)NC(=O)[C@H](CC(=O)O)NC(=O)[C@H](CCC(=O)O)NC(C)=O)[C@@H](C)O)C(=O)N[C@@H](Cc2ccccc2)C(=O)N[C@@H](CC(C)C)C(=O)N[C@@H](CCC(=O)O)C(=O)N1)C(=O)N[C@@H](CCCCN)C(=O)NCC(=O)N[C@@H](CCCCN)C(=O)N[C@@H](Cc1ccccc1)C(=O)N[C@@H](C)C(=O)N[C@@H](CO)C(N)=O [2c] (Ac-EDANNKAT[S5]FLE[S5]IKGKFAS-NH2; staple 9-13) | 16.8 | – | 16.8
9 | CC[C@H](C)[C@H](NC(=O)[C@H](CO)NC(=O)[C@]1(C)CCCC=CCCCCCC[C@@](C)(NC(=O)[C@H](CC(N)=O)NC(=O)[C@H](C)NC(=O)[C@H](CC(=O)O)NC(=O)[C@H](CCC(=O)O)NC(=O)CNC(=O)[C@H](Cc2c[nH]cn2)NC(=O)[C@H](Cc2ccccc2)NC(=O)[C@H](CCC(=O)O)NC(C)=O)C(=O)N[C@@H](CCCCN)C(=O)N[C@@H](C)C(=O)N[C@@H]([C@@H](C)O)C(=O)N[C@@H](CCCCN)C(=O)N[C@@H](Cc2ccccc2)C(=O)N[C@@H](CC(C)C)C(=O)N1)C(=O)N[C@@H](CCCCN)C(=O)N[C@]1(C)CCCC=CCCC[C@@](C)(C(=O)N[C@@H](CO)C(N)=O)NC(=O)[C@H](Cc2ccccc2)NC(=O)[C@H](CCCCN)NC1=O [3a1f] (Ac-EFHGEDAN[R8]KATKFL[S5]SIK[R5]KF[S5]S-NH2; staple 9-16, 20-23) | – | 25.3 ± 17.9 | 37.7
10 | CC[C@H](C)[C@H](NC(=O)[C@]1(C)CCCC=CCCCCCC[C@@](C)(NC(=O)[C@H](CC(N)=O)NC(=O)[C@H](CC(N)=O)NC(=O)[C@H](C)NC(=O)[C@H](CC(=O)O)NC(=O)[C@H](CCC(=O)O)NC(=O)CNC(=O)[C@H](Cc2c[nH]cn2)NC(=O)[C@H](Cc2ccccc2)NC(=O)[C@H](CCC(=O)O)NC(C)=O)C(=O)N[C@@H](C)C(=O)N[C@@H]([C@@H](C)O)C(=O)N[C@@H](CCCCN)C(=O)N[C@@H](Cc2ccccc2)C(=O)N[C@@H](CC(C)C)C(=O)N[C@@H](CCC(=O)O)C(=O)N1)C(=O)N[C@@H](CCCCN)C(=O)N[C@]1(C)CCCC=CCCC[C@@](C)(C(=O)N[C@@H](CO)C(N)=O)NC(=O)[C@H](Cc2ccccc2)NC(=O)[C@H](CCCCN)NC1=O [3b1f] (Ac-EFHGEDANN[R8]ATKFLE[S5]IK[R5]KF[S5]S-NH2; staple 10-17, 20-23) | – | > 100 | 46.6
11 | CC[C@H](C)[C@@H]1NC(=O)[C@](C)(NC(=O)[C@H](CCC(=O)O)NC(=O)[C@H](CC(C)C)NC(=O)[C@H](Cc2ccccc2)NC(=O)[C@H](CCCCN)NC(=O)[C@@H](NC(=O)[C@H](C)NC(=O)[C@H](CCCCN)NC(=O)[C@H](CC(N)=O)NC(=O)[C@H](CC(N)=O)NC(=O)[C@H](C)NC(=O)[C@H](CC(=O)O)NC(=O)[C@H](CCC(=O)O)NC(C)=O)[C@@H](C)O)CCCCCCC=CCCC[C@@](C)(C(N)=O)NC(=O)[C@H](C)NC(=O)[C@H](Cc2ccccc2)NC(=O)[C@H](CCCCN)NC(=O)CNC(=O)[C@H](CCCCN)NC1=O [3e] (Ac-EDANNKATKFLE[R8]IKGKFA[S5]-NH2; staple 13-20) | 19.9 | – | 19.9
12 | CC[C@H](C)[C@H](NC(=O)[C@]1(C)CCCC=CCCCCCC[C@@](C)(NC(=O)[C@H](CC(N)=O)NC(=O)[C@H](CC(N)=O)NC(=O)[C@H](C)NC(=O)[C@]2(C)CCCC=CCCC[C@](C)(NC(=O)[C@H](CCC(=O)O)NC(C)=O)C(=O)N[C@@H](Cc3c[nH]cn3)C(=O)NCC(=O)N[C@@H](CCC(=O)O)C(=O)N2)C(=O)N[C@@H](C)C(=O)N[C@@H]([C@@H](C)O)C(=O)N[C@@H](CCCCN)C(=O)N[C@@H](Cc2ccccc2)C(=O)N[C@@H](CC(C)C)C(=O)N[C@@H](CCC(=O)O)C(=O)N1)C(=O)N[C@@H](CCCCN)C(=O)NCC(=O)N[C@@H](CCCCN)C(=O)N[C@@H](Cc1ccccc1)C(=O)N[C@@H](C)C(=O)N[C@@H](CO)C(N)=O [4c3b] (Ac-E[S5]HGE[S5]ANN[R8]ATKFLE[S5]IKGKFAS-NH2; staple 2-6, 10-17) | – | 39.9 ± 4.5 | 34.2
